Laboratory results from patent publication US10913728B2, “O-substituted hydroxamic acids” (The Johns Hopkins University, priority 2016, dated 2021).
Marks after values point to notes of the source that are not given here.

Key:
[1] = 1H NMR protocol: decomposition of the compounds and relative product yields in aqueous solution; assay type: physicochemical; details: for Carboxylic Acid relative product yield / NHPY relative product yield / PY (corresponding pyrazolone) relative product yield: decomposition in aqueous solution, 1H NMR
Text: A ^1H NMR spectroscopy protocol was used to examine the decomposition of the compounds of the disclosure and measure the relative product yields in aqueous solution (Guthrie, D. A.; Ho, A.; Takahashi, C. G.; Collins, A.; Morris, M.; Toscano, J. P. J. Org. Chem. 2015, 80, 1338-1348; and Guthrie, D. A.; Nourian, S.; Takahashi, C. G.; Toscano, J. P. J. Org. Chem. 2015, 80, 1349-1356).

[2] = Nitroxyl production via N2O quantification in the headspace (GC), relative to Angeli's salt standard; assay type: physicochemical; design: key to % HNO: Stable; details: for % HNO: N2O yield relative to AS standard, phosphate buffer with DTPA, 37° C.
Text: Nitrous oxide (N2O) is produced via the dimerization and dehydration of HNO, and is the most common marker for nitroxyl production (Fukuto et al., Chem. Res. Toxicol. 18:790-801 (2005)). […] Using either nitrous oxide gas or Angeli's salt (“AS”) as a standard, the relative amounts of N2O released from compounds of the disclosure is examined via gas chromatography (“GC”) headspace analysis.
Another procedure for determining N2O released from compounds of the disclosure is as follows. A Varian CP-3800 instrument equipped with a 1041 injector, electron capture detector, and a 25 m 5 Å molecular sieve capillary column was applied for the analysis of nitrous oxide (N2O). Grade 5.0 nitrogen was used as both the carrier (8 mL/min) and the make-up (22 mL/min) gas. For all measurements, the column oven temperature was kept constant at 150° C., and the injector oven and the detector oven were held at 200° C. and 300° C., respectively. A 100 μL gastight syringe with a sample-lock was used for all gas injections. Samples were prepared in 6 mL Wheaton Clr headspace vials with volumes pre-measured for sample uniformity (actual vial volume ranges from 5.8-6.3 mL). Vials were charged with 3 mL of phosphate buffer containing the metal chelator, diethylenetriaminepentaacetic acid (DTPA), and fit with rubber septa and 20 mm aluminum seals. The vials were purged with argon and equilibrated for at least 10 minutes at 37° C. in a dry block heater. A stock solution of Angeli's salt (AS) was prepared in 10 mM sodium hydroxide, and compounds of the disclosure (10 mM) were prepared in acetonitrile and used immediately after preparation. 30 μL of the stock solutions was transferred into vials using a gastight syringe, yielding final concentrations of 0.5, 0.1, and 0.02 mM. Substrates were then incubated long enough to ensure complete decomposition and equilibration of N2O with the headspace. Depending on the concentration of the compound of the disclosure, 60 or 20 μL of the headspace was sampled and injected three times using a gastight syringe with a sample lock. The N2O yield was averaged and reported relative to the AS standard.

[3] = UV-Vis protocol: decomposition kinetics, donor half-lives at pH 7.4 and 37° C.; assay type: physicochemical; details: buffer, pH 7.4, 37° C.
Procedure: A UV-VIS protocol was used to determine the decomposition kinetics of Compounds 1-5. According to this protocol, decomposition of the test compound was monitored by UV-Vis spectroscopy to measure donor half-lives at pH 7.4 and 37° C. (Guthrie, D. A.; Kim, N. Y.; Siegler, M. A.: Moore, C. D.; Toscano, J. P. J. Am. Chem. Soc. 2012, 134, 1962-1965; and Guthrie, D. A.; Ho, A.; Takahashi, C. G.; Collins, A.; Morris, M.; Toscano, J. P. J. Org. Chem. 2015, 80, 1338-1348).

[4] = 1H NMR mechanistic study: decomposition of Compound 1 in the presence of 3,4-dimethyl-1-phenylpyrazolone (PY-2); assay type: physicochemical; details: 0.5 mM compound with 0.5 mM PY-2, 0.25 M phosphate buffer, 0.2 mM DTPA, pH 7.4, 37° C., argon
Procedure: A ^1H NMR Spectroscopy Protocol was used to confirm the formation of nitroso carbonyls following decomposition of Compound 1. In this protocol, 0.5 mM Compound 1 was incubated in the presence of 0.5 mM 3,4-dimethyl-1-phenylpyrazolone in 0.25 M phosphate buffer with 0.2 mM DTPA at pH 7.4, 80% H2O, 10% D2O, and 10% DMSO-d6 at 37° C. under argon. Spectra were collected at the start of the experiment and after complete decomposition.

[5] = cited from earlier work
[6] = Stability of NHPY-1 incubated with PY-2 by 1H NMR spectroscopy; assay type: physicochemical; details: 1H NMR spectroscopy at pH 7.4 and 10
Text: Based on reactivity studies of bis-heteroatom-substituted amides (Glover, S. A. In The Chemistry of Hydroxylamines, Oximes, and Hydroxamic Acids, Part 2; Rappoport, Z., Liebman, J. F., Eds.; John Wiley & Sons: Chichester, West Sussex, 2009, p 839-923), the formation of NHPY-1 may be possible through the direct attack of PY-2 on the amide nitrogen of the hydroxamic acid moiety of […] (Scheme 4).

Compound	Carboxylic Acid relative product yield [1]	NHPY relative product yield [1]	PY (corresponding pyrazolone) relative product yield [1]	NHPY-1 yield from decomposition of Compound 1 ([1]; in the absence of PY-2)	acetate yield from decomposition of Compound 1 ([1]; in the absence of PY-2)	% HNO ([2]; 20 μM compound)	% HNO ([2]; 100 μM compound)	% HNO ([2]; 500 μM compound)	HNO yield from decomposition of Compound 1 ([2]; in the absence of PY-2)	half-life ([3]; UV-Vis spectroscopy)	formation of NHPY-1 upon decomposition [4]	formation of NHPY-1 upon decomposition ([4]; listed as Compound I)	half-life [3]	pKa [5]	stability on incubation with PY-2 [6]
CO/N=C(\C)C1(ONC(C)=O)C(=O)N(c2ccccc2)N=C1C (stereo not drawn) [Compound 1, N-((4-(1-(methoxyimino)ethyl)-3-methyl-5-oxo-1-phenyl-4,5-dihydro-1H-pyrazol-4-yl)oxy)acetamide]	73	26	74	26%	73%	91%	75%	70%	70%	25 min	not formed	quantitative			
CO/N=C(\C)C1(ONC(=O)OC)C(=O)N(c2ccccc2)N=C1C (stereo not drawn) [Compound 3, methyl (4-(1-(methoxyimino)ethyl)-3-methyl-5-oxo-1-phenyl-4,5-dihydro-1H-pyrazol-4-yl)oxycarbamate]	27	72	28			41%	29%	20%					0.6 min		
CO/N=C(\C)C1(ONC(=O)OC(C)(C)C)C(=O)N(c2ccccc2)N=C1C (stereo not drawn) [Compound 5, tert-butyl (4-(1-(methoxyimino)ethyl)-3-methyl-5-oxo-1-phenyl-4,5-dihydro-1H-pyrazol-4-yl)oxycarbamate]						35^c %	26%								
CON=C(C)C1(N(O)C(C)=O)C(=O)N(c2ccccc2)N=C1C (stereo not drawn) [NHPY-1, N-hydroxy-N-(4-(1-(methoxyimino)ethyl)-3-methyl-5-oxo-1-phenyl-4,5-dihydro-1H-pyrazol-4-yl)acetamide]														10.0	stability was confirmed
CO/N=C(\C)C1(ONC(=O)OC)C(=O)N(C)N=C1C (stereo not drawn) [Compound 4, methyl (4-(1-(methoxyimino)ethyl)-1,3-dimethyl-5-oxo-4,5-dihydro-1H-pyrazol-4-yl)oxycarbamate]	14	86	14			29%	17%	8%		1.2 min					
CC(=O)NOC1(C)C(=O)N(c2ccccc2)N=C1C (stereo not drawn) [Compound 2, N-((3,4-dimethyl-5-oxo-1-phenyl-4,5-dihydro-1H-pyrazol-4-yl)oxy)acetamide]						a	a	a							
